Results published in patent publication US8410161B2, “Thioxanthone ring system derivatives” (National Defense Medical Center, priority 2010, dated 2013).

Key:
[1] = tested on: EKVX; test: NCI in vitro DTP human cell line screen, EKVX; assay type: cell-based; conditions: Non-Small Cell Lung Cancer, 1.00E−5 Molar
Method: (§1) Then, a cell toxicity assay of the cancer lines made by National Cancer Institute will be discussed as follows. The cell toxicity assay is performed by choosing ten compounds (existing certification numbers) from the 59 compounds disclosed in the present invention first.

[2] = tested on: MDA-MB-468; test: NCI in vitro DTP human cell line screen, MDA-MB-468; assay type: cell-based; conditions: Breast Cancer, 1.00E−5 Molar
Method: as §1

[3] = tested on: NCI-H522; test: NCI in vitro DTP human cell line screen, NCI-H522; assay type: cell-based; conditions: Non-Small Cell Lung Cancer, 1.00E−5 Molar
Method: as §1

[4] = tested on: SK-MEL-28; test: NCI in vitro DTP human cell line screen, SK-MEL-28; assay type: cell-based; conditions: Melanoma, 1.00E−5 Molar
Method: as §1

[5] = tested on: MOLT-4; test: NCI in vitro DTP human cell line screen, MOLT-4; assay type: cell-based; conditions: Leukemia, 1.00E−5 Molar
Method: as §1

[6] = tested on: RPMI-8226; test: NCI in vitro DTP human cell line screen, RPMI-8226; assay type: cell-based; conditions: Leukemia, 1.00E−5 Molar
Method: as §1

[7] = tested on: SF-295; test: NCI in vitro DTP human cell line screen, SF-295; assay type: cell-based; conditions: CNS Cancer, 1.00E−5 Molar
Method: as §1

[8] = tested on: SF-268; test: NCI in vitro DTP human cell line screen, SF-268; assay type: cell-based; conditions: CNS Cancer, 1.00E−5 Molar
Method: as §1

[9] = tested on: UACC-257; test: NCI in vitro DTP human cell line screen, UACC-257; assay type: cell-based; conditions: Melanoma, 1.00E−5 Molar
Method: as §1

[10] = tested on: BT-549; test: NCI in vitro DTP human cell line screen, BT-549; assay type: cell-based; conditions: Breast Cancer, 1.00E−5 Molar
Method: as §1

[11] = tested on: UO-31; test: NCI in vitro DTP human cell line screen, UO-31; assay type: cell-based; conditions: Renal Cancer, 1.00E−5 Molar
Method: as §1

[12] = tested on: OVCAR-4; test: NCI in vitro DTP human cell line screen, OVCAR-4; assay type: cell-based; conditions: Ovarian Cancer, 1.00E−5 Molar
Method: as §1

[13] = tested on: HT29; test: NCI in vitro DTP human cell line screen, HT29; assay type: cell-based; conditions: Colon Cancer, 1.00E−5 Molar
Method: as §1

[14] = tested on: MDA-MB-435; test: NCI in vitro DTP human cell line screen, MDA-MB-435; assay type: cell-based; conditions: Melanoma, 1.00E−5 Molar
Method: as §1

[15] = tested on: CCRF-CEM; test: NCI in vitro DTP human cell line screen, CCRF-CEM; assay type: cell-based; conditions: Leukemia, 1.00E−5 Molar
Method: as §1

[16] = tested on: DU145; test: NCI in vitro DTP human cell line screen, DU145; assay type: cell-based; conditions: Prostate Cancer, 1.00E−5 Molar
Method: as §1

[17] = tested on: SK-MEL-5; test: NCI in vitro DTP human cell line screen, SK-MEL-5; assay type: cell-based; conditions: Melanoma, 1.00E−5 Molar
Method: as §1

[18] = tested on: TK-10; test: NCI in vitro DTP human cell line screen, TK-10; assay type: cell-based; conditions: Renal Cancer, 1.00E−5 Molar
Method: as §1

[19] = tested on: LOX IMVI; test: NCI in vitro DTP human cell line screen, LOX IMVI; assay type: cell-based; conditions: Melanoma, 1.00E−5 Molar
Method: as §1

[20] = tested on: NCI-H460; test: NCI in vitro DTP human cell line screen, NCI-H460; assay type: cell-based; conditions: Non-Small Cell Lung Cancer, 1.00E−5 Molar
Method: as §1

[21] = tested on: ACHN; test: NCI in vitro DTP human cell line screen, ACHN; assay type: cell-based; conditions: Renal Cancer, 1.00E−5 Molar
Method: as §1

[22] = tested on: SNB-75; test: NCI in vitro DTP human cell line screen, SNB-75; assay type: cell-based; conditions: CNS Cancer, 1.00E−5 Molar
Method: as §1

[23] = tested on: HL-60(TB); test: NCI in vitro DTP human cell line screen, HL-60(TB); assay type: cell-based; conditions: Leukemia, 1.00E−5 Molar
Method: as §1

[24] = tested on: U251; test: NCI in vitro DTP human cell line screen, U251; assay type: cell-based; conditions: CNS Cancer, 1.00E−5 Molar
Method: as §1

[25] = tested on: A3 cell lines; test: MTT assay, A3 cell lines (lung cancer stem cell); assay type: cell-based
Description: Please to FIG. 4B, various cell viabilities of the A3 cell lines can be obtained through the MTT assay and illustrated in FIG. 4B while the compounds No. 1˜30 are used to treat A3 cell lines, wherein A3 cell lines are lung cancer stem cell.

[26] = tested on: HCC-2998; test: NCI in vitro DTP human cell line screen, HCC-2998; assay type: cell-based; conditions: Colon Cancer, 1.00E−5 Molar
Method: as §1

[27] = tested on: COLO 205; test: NCI in vitro DTP human cell line screen, COLO 205; assay type: cell-based; conditions: Colon Cancer, 1.00E−5 Molar
Method: as §1

[28] = tested on: OVCAR-3; test: NCI in vitro DTP human cell line screen, OVCAR-3; assay type: cell-based; conditions: Ovarian Cancer, 1.00E−5 Molar
Method: as §1

[29] = tested on: MDA-MB-231/ATCC; test: NCI in vitro DTP human cell line screen, MDA-MB-231/ATCC; assay type: cell-based; conditions: Breast Cancer, 1.00E−5 Molar
Method: as §1

[30] = tested on: NCI-H322M; test: NCI in vitro DTP human cell line screen, NCI-H322M; assay type: cell-based; conditions: Non-Small Cell Lung Cancer, 1.00E−5 Molar
Method: as §1

[31] = tested on: T-47D; test: NCI in vitro DTP human cell line screen, T-47D; assay type: cell-based; conditions: Breast Cancer, 1.00E−5 Molar
Method: as §1

[32] = tested on: OVCAR-8; test: NCI in vitro DTP human cell line screen, OVCAR-8; assay type: cell-based; conditions: Ovarian Cancer, 1.00E−5 Molar
Method: as §1

[33] = tested on: K562; test: NCI in vitro DTP human cell line screen, K562; assay type: cell-based; conditions: Leukemia, 1.00E−5 Molar
Method: as §1

[34] = tested on: A control cell lines; test: MTT assay, A control cell lines (lung cancer cell); assay type: cell-based
Description: Please refer to Table 1 and FIGS. 4A-4C. According to a MTT assay (Table 1), various cell viabilities of the A control cell lines can be obtained and illustrated in FIG. 4A while the compounds No. 2˜30 are used to treat A control cell lines, wherein A control cell lines are lung cancer cell.

[35] = tested on: KM12; test: NCI in vitro DTP human cell line screen, KM12; assay type: cell-based; conditions: Colon Cancer, 1.00E−5 Molar
Method: as §1

[36] = tested on: SK-OV-3; test: NCI in vitro DTP human cell line screen, SK-OV-3; assay type: cell-based; conditions: Ovarian Cancer, 1.00E−5 Molar
Method: as §1

[37] = tested on: MCF7; test: NCI in vitro DTP human cell line screen, MCF7; assay type: cell-based; conditions: Breast Cancer, 1.00E−5 Molar
Method: as §1

[38] = tested on: CAKI-1; test: NCI in vitro DTP human cell line screen, CAKI-1; assay type: cell-based; conditions: Renal Cancer, 1.00E−5 Molar
Method: as §1

[39] = tested on: HS 578-T; test: NCI in vitro DTP human cell line screen, HS 578-T; assay type: cell-based; conditions: Breast Cancer, 1.00E−5 Molar
Method: as §1

[40] = tested on: IGROV1; test: NCI in vitro DTP human cell line screen, IGROV1; assay type: cell-based; conditions: Ovarian Cancer, 1.00E−5 Molar
Method: as §1

[41] = tested on: SK-MEL-2; test: NCI in vitro DTP human cell line screen, SK-MEL-2; assay type: cell-based; conditions: Melanoma, 1.00E−5 Molar
Method: as §1

[42] = tested on: M14; test: NCI in vitro DTP human cell line screen, M14; assay type: cell-based; conditions: Melanoma, 1.00E−5 Molar
Method: as §1

[43] = tested on: HCT-15; test: NCI in vitro DTP human cell line screen, HCT-15; assay type: cell-based; conditions: Colon Cancer, 1.00E−5 Molar
Method: as §1

[44] = tested on: NCI-H226; test: NCI in vitro DTP human cell line screen, NCI-H226; assay type: cell-based; conditions: Non-Small Cell Lung Cancer, 1.00E−5 Molar
Method: as §1

[45] = MTT assay, HEL299 fibroblast; assay type: cell-based; conditions: human
Description: Please refer to FIG. 4C, various cell viabilities of the HEL299 cell lines can be obtained through the MTT assay while the compounds No. 1˜30 are used to treat HEL299 cell lines, wherein HEL299 cell lines are fibroblast.

[46] = tested on: PC-3; test: NCI in vitro DTP human cell line screen, PC-3; assay type: cell-based; conditions: Prostate Cancer, 1.00E−5 Molar
Method: as §1

[47] = tested on: OVCAR-5; test: NCI in vitro DTP human cell line screen, OVCAR-5; assay type: cell-based; conditions: Ovarian Cancer, 1.00E−5 Molar
Method: as §1

[48] = tested on: 786-0; test: NCI in vitro DTP human cell line screen, 786-0; assay type: cell-based; conditions: Renal Cancer, 1.00E−5 Molar
Method: as §1

[49] = tested on: SR; test: NCI in vitro DTP human cell line screen, SR; assay type: cell-based; conditions: Leukemia, 1.00E−5 Molar
Method: as §1

[50] = tested on: MALME-3M; test: NCI in vitro DTP human cell line screen, MALME-3M; assay type: cell-based; conditions: Melanoma, 1.00E−5 Molar
Method: as §1

[51] = tested on: HOP-92; test: NCI in vitro DTP human cell line screen, HOP-92; assay type: cell-based; conditions: Non-Small Cell Lung Cancer, 1.00E−5 Molar
Method: as §1

[52] = tested on: 60 cancer lines; test: NCI cell toxicity assay of 60 cancer lines, whole panel summary; assay type: cell-based, human; conditions: mean over all cell lines; 1.00E−5 Molar
Method: as §1

[53] = tested on: HCT-116; test: NCI in vitro DTP human cell line screen, HCT-116; assay type: cell-based; conditions: Colon Cancer, 1.00E−5 Molar
Method: as §1

[54] = tested on: SF-539; test: NCI in vitro DTP human cell line screen, SF-539; assay type: cell-based; conditions: CNS Cancer, 1.00E−5 Molar
Method: as §1

[55] = tested on: NCI-H23; test: NCI in vitro DTP human cell line screen, NCI-H23; assay type: cell-based; conditions: Non-Small Cell Lung Cancer, 1.00E−5 Molar
Method: as §1

[56] = tested on: SW-620; test: NCI in vitro DTP human cell line screen, SW-620; assay type: cell-based; conditions: Colon Cancer, 1.00E−5 Molar
Method: as §1

[57] = tested on: NCI/ADR-RES; test: NCI in vitro DTP human cell line screen, NCI/ADR-RES; assay type: cell-based; conditions: Ovarian Cancer, 1.00E−5 Molar
Method: as §1

Cc1cccc(C)c1Sc1ccc2c(=O)c3ccccc3sc2c1Cl [No. 12, 4-Chloro-3-(2,6-dimethylphenylthio)-9H-thioxanthen-9-one]
Growth Percent [1]: 103.89%
Growth Percent [2]: 113.20%
Growth Percent [3]: 100.28%
Growth Percent [4]: 110.00%
Growth Percent [5]: 104.33%
Growth Percent [6]: 101.60%
Growth Percent [7]: 98.15%
Growth Percent [8]: 98.33%
Growth Percent [9]: 92.09%
Growth Percent [10]: 105.28%
Growth Percent [11]: 87.03%
Growth Percent [12]: 107.51%
Growth Percent [13]: 103.86%
Growth Percent [14]: 107.09%
Growth Percent [15]: 88.07%
Growth Percent [16]: 109.56%
Growth Percent [17]: 104.77%
Growth Percent [18]: 99.22%
Growth Percent [19]: 105.37%
Growth Percent [20]: 110.85%
Growth Percent [21]: 103.68%
Growth Percent [22]: 90.00%
Growth Percent [23]: 109.07%
Growth Percent [24]: 95.70%
cell viabilities of A3 cell lines (MTT assay) [25]: 102 ± 9.52%
Growth Percent [26]: 103.54%
Growth Percent [27]: 110.46%
Growth Percent [28]: 113.05%
Growth Percent [29]: 108.12%
Growth Percent [30]: 113.78%
Growth Percent [31]: 97.56%
Growth Percent [32]: 96.86%
Growth Percent [33]: 97.86%
cell viabilities of A control cell lines (MTT assay) [34]: 103 ± 5.86%
Growth Percent [35]: 113.08%
Growth Percent [36]: 111.32%
Growth Percent [37]: 94.01%
Growth Percent [38]: 89.35%
Growth Percent [39]: 107.64%
Growth Percent [40]: 98.49%
Growth Percent [41]: 108.94%
Growth Percent [42]: 105.63%
Growth Percent [43]: 99.05%
Growth Percent [44]: 109.77%
viability [45]: 101 ± 9.52%
Growth Percent [46]: 98.56%
Growth Percent [47]: 96.86%
Growth Percent [48]: 108.98%
Growth Percent [49]: 95.93%
Growth Percent [50]: 100.81%
Growth Percent [51]: 88.79%
Growth Percent, Mean [52]: 102.52%
Growth Percent [53]: 105.21%
Growth Percent [54]: 106.48%
Growth Percent [55]: 93.96%
Growth Percent [56]: 105.40%
Growth Percent [57]: 105.14%
